Experimental data taken from ChEMBL document CHEMBL6178021, “Optimization of Tambjamines Active against Multiple Stages of Malaria Parasites” (J Med Chem, 2025).
Converted amounts (≈) assume the structure as drawn.

Columns and labels:
Plasmodium falciparum [1] = assay: microbe, parasite or virus in culture; conditions: Dd2, 72 h
Description: Antiplasmodial activity against asexual blood-stage Plasmodium falciparum Dd2 using 2% haematocrit and 0.2% parasitemia assessed as reduction in fluorescence measured after 72 hrs by Malaria SYBR Green I-based Fluorescence (MSF) assay

[2] = Metabolic stability in human liver microsomes assessed as half life measured up to 60 mins by LC/MS analysis; format: ADME, Microsome
Plasmodium falciparum [3] = assay: microbe, parasite or virus in culture; conditions: D6, 72 h
Description: Antiplasmodial activity against asexual blood-stage Plasmodium falciparum D6 using 2% haematocrit and 0.2% parasitemia assessed as reduction in fluorescence measured after 72 hrs by Malaria SYBR Green I-based Fluorescence (MSF) assay

in vitro [4] = conditions: mouse, liver microsomes
Plasmodium yoelii [5] = assay: Antimalarial activity against erythrocytic Plasmodium yoelii MRA-428 infected in CF1 mouse assessed as reduction in parasitemia at 10 mg/kg, po once daily for 4 days measured on day 5; format: functional; design: scale not given: the % may be the effect or the level left; conditions: time 4 day
[6] = Solubility of the compound in potassium phosphate buffer at pH 7.4 by UV-vis spectroscopy; conditions: buffer
[7] = Metabolic stability in mouse liver microsomes assessed as half life measured up to 60 mins by LC/MS analysis; format: ADME, Microsome
HepG2 = assay: Cytotoxicity against human HepG2 cells assessed as cell viability measured after 48 hrs by MTT assay; format: toxicity, cell-based; conditions: hepg2
MDR1 (human) [8] = assay: Apparent permeability across apical to basolateral side in MDCK transfected with human MDR1 cells incubated for 1 hr by LC-MS analysis; conditions: dog, MDCK-MDR1
Plasmodium yoelii [9] = assay: Antimalarial activity against erythrocytic Plasmodium yoelii MRA-428 infected in CF1 mouse assessed as reduction in parasitemia at 25 mg/kg, po once daily for 4 days measured on day 5; format: functional; design: scale not given: the % may be the effect or the level left; conditions: time 4 day
in vitro [10] = conditions: human, liver microsomes
Plasmodium falciparum [11] = assay: Antiplasmodial activity against asexual blood-stage Plasmodium falciparum Tm90-C2B using 2% haematocrit and 0.2% parasitemia assessed as reduction in fluorescence measured after 72 hrs by Malaria SYBR Green I-based Fluorescence (MSF) assay; format: functional, organism-based
MDR1 (human) [12] = assay: Apparent permeability across basolateral to apical side in MDCK transfected with human MDR1 cells incubated for 1 hr by LC-MS analysis; conditions: dog, MDCK-MDR1
Plasmodium yoelii [13] = assay: Antimalarial activity against erythrocytic Plasmodium yoelii MRA-428 infected in CF1 mouse assessed as cured mouse at 50 mg/kg, po once daily for 4 days measured on day 28 day; format: functional, organism-based; conditions: time 4.0 day
Plasmodium yoelii [14] = assay: Antimalarial activity against erythrocytic Plasmodium yoelii MRA-428 infected in CF1 mouse assessed as cured mouse at 25 mg/kg, po once daily for 4 days measured on day 28 day; format: functional, organism-based; conditions: time 4.0 day
Plasmodium yoelii [15] = assay: Antimalarial activity against erythrocytic Plasmodium yoelii MRA-428 infected in CF1 mouse assessed as reduction in parasitemia at 50 mg/kg, po once daily for 4 days measured on day 5; format: functional; design: scale not given: the % may be the effect or the level left; conditions: time 4 day

| SMILES | IC50 (Plasmodium falciparum [1]) [nM] | half-life [2] [min] | IC50 (Plasmodium falciparum [3]) [nM] | microsomal CLint at 1 h (in vitro [4]) [µL/min/mg] | Activity (Plasmodium yoelii [5]) [%] | solubility [6] [µM] | half-life [7] [min] | IC50 (HepG2) [nM] | Papp A→B at 1 h (MDR1 (human) [8]) [×10⁻⁶ cm/s] | Activity (Plasmodium yoelii [9]) [%] | microsomal CLint at 1 h (in vitro [10]) [µL/min/mg] | IC50 (Plasmodium falciparum [11]) [nM] | Papp B→A at 1 h (MDR1 (human) [12]) [×10⁻⁶ cm/s] | Activity (Plasmodium yoelii [13]) | Activity (Plasmodium yoelii [14]) | Activity (Plasmodium yoelii [15]) [%] |
| --- | --- | --- | --- | --- | --- | --- | --- | --- | --- | --- | --- | --- | --- | --- | --- | --- |
| COc1ccc(Cc2ccc(C3=N/C(=C\NC4CCCCC4)C4=C3OCCO4)[nH]2)cc1 | 12.6 | > 60 | 6.08 | 16.2 | 5.01 | 16.4 (≈ 6.88 µg/mL) | > 60 | 1550 | 0.002 | 31.2 | 18.1 | 9.6 | 0.051 | – | – | – |
| COC1=C(OC)/C(=C/NC2CCCCC2)N=C1c1ccc[nH]1 | 73.5 | 14.6 | 66.8 | 74.1 | 0 | 478 (≈ 144 µg/mL) | 18.7 | 41600 | 4.3 | 70.8 | 94.9 | 83.3 | 4.8 | – | – | – |
| COc1ccc(Cc2ccc(C3=N/C(=C\NC4CCCCC4)C4=C3CCCC4)[nH]2)cc1 | 12.2 | > 60 | 9.68 | 9.87 | 0 | 25.5 (≈ 10.6 µg/mL) | > 60 | 2020 | – | 0 | 11.2 | 5.92 | – | – | – | – |
| CCC1=C(CC)/C(=C/NC2CCCCC2)N=C1c1ccc[nH]1 | 115 | 30.5 | 72.1 | 34.5 | 94.4 | 307 (≈ 91.3 µg/mL) | 40.1 | 13000 | 0.22 | 100 | 45.5 | 79.9 | 0.18 | Not active; None Of The Mouse Cured Out Of Four Tested | Not active; None Of The Mouse Cured Out Of Four Tested | 100 |
| CCN(CC)CCCC(C)Nc1ccnc2cc(Cl)ccc12 (centres undefined) | – | – | – | – | – | – | – | – | – | – | – | – | – | Not active; None Of The Mouse Cured Out Of Four Tested | Not active; None Of The Mouse Cured Out Of Four Tested | – |
| CC1=C(C)/C(=C/NC2CCCCCC2)N=C1c1ccc(C)[nH]1 | 3.73 | 55 | 12.4 | 37.6 | 0 | 72.3 (≈ 21.5 µg/mL) | 36.8 | 6770 | 0.006 | 100 | 25.2 | 4.84 | 0.12 | Not active; None Of The Mouse Cured Out Of Four Tested | Not active; None Of The Mouse Cured Out Of Four Tested | 100 |
| CCC1=C(C)/C(=C/NC2CCCCCCC2)N=C1c1ccc(CC)[nH]1 | 9.01 | 41.4 | 7.39 | 17.5 | 61.9 | 10 (≈ 3.4 µg/mL) | > 60 | 4280 | 0.095 | 100 | 33.4 | 2.98 | – | Not active; None Of The Mouse Cured Out Of Four Tested | Not active; None Of The Mouse Cured Out Of Four Tested | 100 |
| CCC1=C(C)/C(=C/NC2CCCCC2)N=C1c1ccc(C)[nH]1 | 15.7 | > 60 | 27.4 | 43.7 | 80.3 | 72.5 (≈ 21.6 µg/mL) | 31.7 | 8090 | 0.33 | 100 | 6.07 | 32.3 | 0.099 | Not active; None Of The Mouse Cured Out Of Four Tested | Not active; None Of The Mouse Cured Out Of Four Tested | 100 |
| C(/NC1CCCCCC1)=C1/N=C(c2ccc[nH]2)C2=C1OCCO2 | 25.7 | 14.9 | – | 79.8 | 0 | 183 (≈ 57.4 µg/mL) | 19.5 | 7680 | 1.7 | 31.2 | 92.8 | 12.6 | 2.9 | – | – | – |
| CCc1ccc(C2=N/C(=C\NC3CCCCCC3)C(OC)=C2OC)[nH]1 | 4.97 | > 60 | 3.69 | 37.9 | 13.5 | 56.1 (≈ 19.3 µg/mL) | 36.6 | 11000 | 0.059 | 59.6 | 12.6 | 1.41 | 0.16 | – | – | – |
| C(/NC1CCCCC1)=C1/N=C(c2ccc[nH]2)C2=C1OCCO2 | 53.5 | 13.1 | 48.5 | 86.4 | 7.6 | 231 (≈ 69.2 µg/mL) | 16.1 | 9080 | 0.33 | 26.7 | 105 | 43.9 | 4.4 | – | – | – |
| CCc1ccc(C2=N/C(=C\NC3CCCCC3)C(OC)=C2OC)[nH]1 | 15.5 | > 60 | 10.3 | 52.8 | 12.3 | 99.6 (≈ 32.8 µg/mL) | 26.2 | 11400 | 0.21 | 12.1 | 16.8 | 3.96 | 0.49 | – | – | – |
| CCC1=C(CC)/C(=C/NC2CCCCCCC2)N=C1c1ccc(Br)[nH]1 | 124 | > 60 | 53.4 | 10.4 | 20.4 | 6.28 (≈ 2.54 µg/mL) | > 60 | 9480 | 0.006 | 42.3 | 9.19 | 75.2 | 0.066 | – | – | – |
| CCC1=C(CC)/C(=C/NC2CCCCCC2)N=C1c1ccc(CC)[nH]1 | 3.21 | > 60 | 7.2 | 5.29 | 37.6 | 30.1 (≈ 10.2 µg/mL) | > 60 | 3640 | 0.03 | 100 | 13.3 | 4.57 | 0.012 | Not active; None Of The Mouse Cured Out Of Four Tested | Not active; None Of The Mouse Cured Out Of Four Tested | 100 |
| C(/NC1CCCCC1)=C1/N=C(c2ccc[nH]2)C2=C1CCCC2 | 13.2 | – | – | 58.2 | 88.8 | 294 (≈ 86.9 µg/mL) | 23.8 | – | 0.27 | 100 | 51.9 | 16.6 | 0.092 | Not active; None Of The Mouse Cured Out Of Four Tested | Not active; None Of The Mouse Cured Out Of Four Tested | 100 |
| CCc1ccc(C2=N/C(=C\NC3CCCCCCC3)C(C)=C2C)[nH]1 | 3.97 | > 60 | 5.05 | – | – | 57.7 (≈ 18.8 µg/mL) | > 60 | 2020 | 0.022 | 97 | – | 4.28 | – | – | – | 100 |
| CCc1ccc(C2=N/C(=C\NC3CCCCCC3)C3=C2OCCO3)[nH]1 | 16.7 | > 60 | 7.58 | 48.2 | 34.2 | 52.1 (≈ 17.8 µg/mL) | 28.7 | 1780 | 0.042 | 67.4 | 20.6 | 3.34 | 0.47 | – | – | – |
| CC1=C(C)/C(=C/NC2CCCCC2)N=C1c1ccc(C)[nH]1 | 4.17 | > 60 | 9.92 | 37.3 | 0 | 168 (≈ 47.6 µg/mL) | 37.2 | 6820 | 0.053 | 100 | 13.6 | 4.9 | 0.37 | Not active; None Of The Mouse Cured Out Of Four Tested | Not active; None Of The Mouse Cured Out Of Four Tested | 100 |
